In patent US20250059220A1, “SUBSTITUTED BENZOTHIOPHENE DERIVATIVES AND METHODS OF USE THEREOF” (Merck Sharp & Dohme LLC, priority 2021, published 2025):

Experiments:
human PTPN2 (1-387) = human PTPN2 (1-387) (Homo sapiens (Human), UniProt P17706); test: Human PTPN2 Biochemical Assay; conditions: DiFMUP substrate
How it was run: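 Human PTPN2 (1-387) preincubated 30 min at RT with compound (10-point 3-fold series) in Tris pH 7.4 buffer with 0.5 mM DTT, then DiFMUP substrate added for 1 h at RT. Fluorescence at ex 360/em 460 nm, normalised to no-enzyme and enzyme controls; EC50 from 4-parameter fit.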

human PTPN1 (1-435) = human PTPN1 (1-435) (Homo sapiens (Human), UniProt P18031); test: Human PTPN1 Biochemical Assay; conditions: DiFMUP substrate, read-out: PTP1B IC50
human PTPN1 (1-435), sequence (P18031 whole entry): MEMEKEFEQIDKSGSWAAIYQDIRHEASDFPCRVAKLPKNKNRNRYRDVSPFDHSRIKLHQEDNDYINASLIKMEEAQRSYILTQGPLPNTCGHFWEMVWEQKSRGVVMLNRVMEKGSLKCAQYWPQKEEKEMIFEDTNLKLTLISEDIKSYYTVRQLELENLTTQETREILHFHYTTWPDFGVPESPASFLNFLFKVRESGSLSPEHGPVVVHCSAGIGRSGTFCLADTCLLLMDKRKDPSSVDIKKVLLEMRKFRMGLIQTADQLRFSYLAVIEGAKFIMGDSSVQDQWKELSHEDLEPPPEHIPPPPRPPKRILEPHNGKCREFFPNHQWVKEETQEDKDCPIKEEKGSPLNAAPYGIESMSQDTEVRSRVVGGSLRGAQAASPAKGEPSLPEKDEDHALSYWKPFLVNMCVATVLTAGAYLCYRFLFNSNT
How it was run: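 Read-out is DiFMUP hydrolysis fluorescence (360 nm excitation, 460 nm emission) after 1 h at room temperature, following 30 min enzyme–compound preincubation.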

human PTPN2 (1-387), sequence (P17706 other isoform, or with tags, fused parts or gaps): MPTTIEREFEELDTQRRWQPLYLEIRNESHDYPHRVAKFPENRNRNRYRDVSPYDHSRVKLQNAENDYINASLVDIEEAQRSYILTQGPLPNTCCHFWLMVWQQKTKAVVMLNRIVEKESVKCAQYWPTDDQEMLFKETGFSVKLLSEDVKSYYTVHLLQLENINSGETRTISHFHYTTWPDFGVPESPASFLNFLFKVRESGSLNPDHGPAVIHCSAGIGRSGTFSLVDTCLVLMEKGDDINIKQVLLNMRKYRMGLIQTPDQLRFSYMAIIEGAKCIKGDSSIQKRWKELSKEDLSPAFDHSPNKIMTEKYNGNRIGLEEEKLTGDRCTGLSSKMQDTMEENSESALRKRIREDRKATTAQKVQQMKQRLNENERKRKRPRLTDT

IC50 (human PTPN2 (1-387)) | IC50 (human PTPN1 (1-435)) | SMILES
19.3 nM | 128 nM | NC(=O)c1cc(OCc2ccc(-c3ncccn3)cc2)c2sc(C(F)(F)P(=O)(O)O)c(Br)c2c1 [Compound 343]
117 nM | 195 nM | Cc1ccc(COc2cc(C(N)=O)cc3c(Br)c(C(F)(F)P(=O)(O)O)sc23)cc1C(F)(F)F [Compound 344]
16.3 nM | 29.5 nM | NC(=O)c1cc(OCc2ccc(C(F)(F)F)cc2)c2sc(C(F)(F)P(=O)(O)O)c(Br)c2c1 [Compound 345]
2.5 nM | 16.4 nM | NC(=O)c1cc(OCc2ccc(-c3ccccc3)cc2)c2sc(C(F)(F)P(=O)(O)O)c(Br)c2c1 [Compound 346]
23.8 nM | 36.5 nM | NC(=O)c1cc(OCc2ccc(Cl)c(Cl)c2)c2sc(C(F)(F)P(=O)(O)O)c(Br)c2c1 [Compound 347]
75.7 nM | 177 nM | COc1ccc(COc2cc(C(N)=O)cc3c(Br)c(C(F)(F)P(=O)(O)O)sc23)c(C(F)(F)F)c1 [Compound 348]
22 nM | 26.9 nM | COc1ccc(COc2cc(C(N)=O)cc3c(Br)c(C(F)(F)P(=O)(O)O)sc23)cc1F [Compound 349]
159 nM | 406 nM | NC(=O)c1cc(OCc2ccc(C3CCN(CC(F)(F)F)CC3)cc2)c2sc(C(F)(F)P(=O)(O)O)c(Br)c2c1 [Compound 350]
104 nM | 174 nM | NC(=O)c1cc(OCc2ccc(F)c(C(F)(F)F)c2)c2sc(C(F)(F)P(=O)(O)O)c(Br)c2c1 [Compound 351]
364 nM | 692 nM | Cc1cc(C)c(COc2cc(C(N)=O)cc3c(Br)c(C(F)(F)P(=O)(O)O)sc23)c(C)c1 [Compound 352]
38.5 nM | 140 nM | NC(=O)c1cc(OCc2ccc(-n3cncn3)cc2)c2sc(C(F)(F)P(=O)(O)O)c(Br)c2c1 [Compound 353]
9.6 nM | 69.7 nM | NC(=O)c1cc(OCc2ccc(-c3nccs3)cc2)c2sc(C(F)(F)P(=O)(O)O)c(Br)c2c1 [Compound 354]
16.3 nM | 118 nM | NC(=O)c1cc(OCc2ccc(-n3ccnc3)cc2)c2sc(C(F)(F)P(=O)(O)O)c(Br)c2c1 [Compound 355]
15.9 nM | 20.5 nM | NC(=O)c1cc(OCc2ccc(F)c(F)c2)c2sc(C(F)(F)P(=O)(O)O)c(Br)c2c1 [Compound 356]
13.7 nM | 21.7 nM | NC(=O)c1cc(OCc2ccc(C(F)(F)F)c(F)c2)c2sc(C(F)(F)P(=O)(O)O)c(Br)c2c1 [Compound 357]
35.2 nM | 109 nM | CC(C)(C)c1ccc(COc2cc(C(N)=O)cc3c(Br)c(C(F)(F)P(=O)(O)O)sc23)cc1 [Compound 359]
12.9 nM | 25.2 nM | NC(=O)c1cc(OCc2ccc(OC(F)F)cc2)c2sc(C(F)(F)P(=O)(O)O)c(Br)c2c1 [Compound 360]
54.6 nM | 133 nM | COc1ccc(COc2cc(C(N)=O)cc3c(Br)c(C(F)(F)P(=O)(O)O)sc23)cc1C(F)(F)F [Compound 361]
42.8 nM | 76.7 nM | COc1cc(Cl)ccc1COc1cc(C(N)=O)cc2c(Br)c(C(F)(F)P(=O)(O)O)sc12 [Compound 362]
112 nM | 152 nM | COc1cc(COc2cc(C(N)=O)cc3c(Br)c(C(F)(F)P(=O)(O)O)sc23)ccc1C#N [Compound 363]
2.5 nM | 2.6 nM | CS(=O)(=O)CCCOc1cc(-c2cnn[nH]2)cc2c(Br)c(C(F)(F)P(=O)(O)O)sc12 [Compound 364]
2.6 nM | 2.5 nM | Cc1nn[nH]c1-c1cc(OCCCC(F)(F)F)c2sc(C(F)(F)P(=O)(O)O)c(Br)c2c1 [Compound 366]
12.2 nM | 14.1 nM | O=P(O)(O)C(F)(F)c1sc2c(OCC3CC3(F)F)cc(-c3cnn[nH]3)cc2c1Br (stereo not shown) [Compound 367]
3.53 nM | 3.1 nM | O=P(O)(O)C(F)(F)c1sc2c(OCC3CC3(F)F)cc(-c3cnn[nH]3)cc2c1Br (stereo not shown) [Compound 368]
< 2.5 nM | < 2.5 nM | CS(=O)(=O)c1ccc(COc2cc(-c3cnn[nH]3)cc3c(Br)c(C(F)(F)P(=O)(O)O)sc23)cc1 [Compound 369]
140 nM | 133 nM | CCCC(C)Oc1cc(C(N)=O)cc2c(Br)c(C(F)(F)P(=O)(O)O)sc12 (stereo not shown) [Compound 370]
12 nM | 8.6 nM | CNS(=O)(=O)CCCOc1cc(C(N)=O)cc2c(Br)c(C(F)(F)P(=O)(O)O)sc12 [Compound 373]

IC50 (human PTPN2 (1-387)) | IC50 (human PTPN1 (1-435)) | SMILES
14 nM | 12.5 nM | CN(C)S(=O)(=O)CCCOc1cc(C(N)=O)cc2c(Br)c(C(F)(F)P(=O)(O)O)sc12 [Compound 374]
77.9 nM | 67.4 nM | NC(=O)CCCCOc1cc(C(N)=O)cc2c(Br)c(C(F)(F)P(=O)(O)O)sc12 [Compound 375]
37.9 nM | 32.6 nM | NC(=O)c1cc(OCc2ccc(CS(N)(=O)=O)cc2)c2sc(C(F)(F)P(=O)(O)O)c(Br)c2c1 [Compound 376]
4.52 nM | 5.8 nM | CS(=O)(=O)c1ccc(COc2cc(C(N)=O)cc3c(Br)c(C(F)(F)P(=O)(O)O)sc23)cc1 [Compound 377]
91.9 nM | 74.4 nM | NC(=O)c1cc(OC[C@@H]2C[C@@H]2F)c2sc(C(F)(F)P(=O)(O)O)c(Br)c2c1 [Compound 378]
3.98 nM | 5.2 nM | CS(=O)(=O)c1ccc(COc2cc(C(N)=O)cc3c(Br)c(C(F)(F)P(=O)(O)O)sc23)cn1 [Compound 379]
2.5 nM | 2.9 nM | NC(=O)c1cc(OCc2ccc(S(N)(=O)=O)nc2)c2sc(C(F)(F)P(=O)(O)O)c(Br)c2c1 [Compound 380]
2.5 nM | 2.5 nM | NC(=O)c1cc(OC[C@H]2C[C@H](S(N)(=O)=O)C2)c2sc(C(F)(F)P(=O)(O)O)c(Br)c2c1 [Compound 381]
32 nM | 27.6 nM | NC(=O)c1cc(OC[C@H]2C[C@@H](S(N)(=O)=O)C2)c2sc(C(F)(F)P(=O)(O)O)c(Br)c2c1 [Compound 382]
79.6 nM | 92.3 nM | NC(=O)c1cc(OCc2cccc(C(F)(F)F)c2)c2sc(C(F)(F)P(=O)(O)O)c(Br)c2c1 [Compound 383]
351 nM | 299 nM | NC(=O)c1cc(OCc2cc(C(F)(F)F)cc(C(F)(F)F)c2)c2sc(C(F)(F)P(=O)(O)O)c(Br)c2c1 [Compound 384]
124 nM | 166 nM | NC(=O)c1cc(OCc2cccc3ccccc23)c2sc(C(F)(F)P(=O)(O)O)c(Br)c2c1 [Compound 385]
17.1 nM | 26 nM | NC(=O)c1cc(OCc2ccc3c(c2)CCS3(=O)=O)c2sc(C(F)(F)P(=O)(O)O)c(Br)c2c1 [Compound 386]
15.1 nM | 35.8 nM | CS(=O)(=O)c1ccc(COc2cc(C(N)=O)cc3c(Br)c(C(F)(F)P(=O)(O)O)sc23)c(Cl)c1 [Compound 387]
59.3 nM | 132 nM | NC(=O)c1cc(OCc2ccc(C3(C(F)(F)F)CC3)cc2)c2sc(C(F)(F)P(=O)(O)O)c(Br)c2c1 [Compound 388]
7.8 nM | 14.1 nM | CS(=O)(=O)c1ccc(COc2cc(C(N)=O)cc3c(Br)c(C(F)(F)P(=O)(O)O)sc23)c(F)c1 [Compound 389]
4 nM | 8.7 nM | CS(=O)(=O)c1ccc(COc2cc(C(N)=O)cc3c(Br)c(C(F)(F)P(=O)(O)O)sc23)cc1Cl [Compound 390]
6.3 nM | 12.4 nM | Cc1cc(S(C)(=O)=O)ccc1COc1cc(C(N)=O)cc2c(Br)c(C(F)(F)P(=O)(O)O)sc12 [Compound 391]
170 nM | 153 nM | CC1CCS(=O)(=O)C1CCOc1cc(C(N)=O)cc2c(Br)c(C(F)(F)P(=O)(O)O)sc12 (stereo not shown) [Compound 392]
20.5 nM | 68.1 nM | CC1(c2ccc(COc3cc(C(N)=O)cc4c(Br)c(C(F)(F)P(=O)(O)O)sc34)cc2)CC1 [Compound 396]
4.4 nM | 7.7 nM | NC(=O)c1cc(OCc2ccc(S(N)(=O)=O)cc2)c2sc(C(F)(F)P(=O)(O)O)c(Br)c2c1 [Compound 397]
23.2 nM | 78.6 nM | NC(=O)c1cc(OCc2ccc(-c3cncnc3)cc2)c2sc(C(F)(F)P(=O)(O)O)c(Br)c2c1 [Compound 398]
69 nM | 213 nM | NC(=O)c1cc(OCc2ccc(C3CC3)cc2Cl)c2sc(C(F)(F)P(=O)(O)O)c(Br)c2c1 [Compound 399]
214 nM | 736 nM | NC(=O)c1cc(OCc2ccc([C@H]3CC[C@H](C(F)(F)F)CC3)cc2)c2sc(C(F)(F)P(=O)(O)O)c(Br)c2c1 [Compound 400]
4.4 nM | 36.2 nM | NC(=O)c1cc(OCc2ccc(-c3cccnc3)cc2)c2sc(C(F)(F)P(=O)(O)O)c(Br)c2c1 [Compound 401]
10.1 nM | 59.5 nM | NC(=O)c1cc(OCc2ccc(-c3ccncc3)cc2)c2sc(C(F)(F)P(=O)(O)O)c(Br)c2c1 [Compound 402]
4 nM | 4.6 nM | NC(=O)c1cc(OCC23CC(S(N)(=O)=O)(C2)C3)c2sc(C(F)(F)P(=O)(O)O)c(Br)c2c1 [Compound 403]

SMILES | IC50 (human PTPN2 (1-387)) | IC50 (human PTPN1 (1-435))
NS(=O)(=O)CCCOc1cc(-c2cnn[nH]2)cc2c(Br)c(C(F)(F)P(=O)(O)O)sc12 [Compound 365] | 2.5 nM | 2.5 nM
O=P(O)(O)C(F)(F)c1sc2c(OCCCC(F)(F)F)cc(-c3cn[nH]c3)cc2c1Br [Compound 404, ((3-bromo-5-(1H-pyrazol-4-yl)-7-(4,4,4-trifluorobutoxy)benzo[b]thiophen-2-yl)difluoromethyl)phosphonic acid] | 224 nM | 287 nM
